The source of these data is PubChem BioAssay (NCI).

Where “and” joins values, the source holds several entries; their conditions need not be identical. Equal values may be shown once.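 These data come from cells grown in 96-well plates and exposed to compound for 48 hours at five concentrations. GI50: concentration for 50% inhibition of growth. TGI: concentration producing complete growth inhibition.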

The test system of one assay is SK-MEL-28 melanoma. Kind of assay: NCI tumour cell line growth inhibition, 48 h.
Consider `CN(C)CCCn1c(=O)c2ccccc2c2ccccc21`, for which the GI50 was 21.6 µM and the TGI was 46.9 µM.

`O=c1[nH]c(=O)n(C2CC(O)C(COP(=O)(OCc3ccc([N+](=O)[O-])o3)N(CCCCCl)CC(O)CO)O2)cc1F` (stereo not drawn): the GI50 was above 100 µM and the TGI was above 100 µM.

`O=C1OC(=O)C(=C\c2ccc3c(c2)OCO3)/C1=C/c1ccc2c(c1)OCO2` gave a TGI above 100 µM.

With `CC(C)NCCCn1c(Sc2cc3c(cc2I)OCO3)nc2c(N)ncnc21`, the GI50 was 0.418 µM and the TGI came out at 44.5 µM.

For `COc1ccc(-c2[nH]c3ccccc3c2-c2ccc(OC)cc2)cc1`, the GI50 was 8.6 µM and the TGI is 31.5 µM.

As to `CN1C(=O)N(C)C2C1NN=c1s/c(=C\c3ccc(C(F)(F)F)cc3)c(=O)n12` (stereo not drawn), the GI50 was 10.2 µM and the TGI was above 100 µM.

Consider `C[C@@H]1CN(Cc2ccc(F)cc2)[C@@H](C)CN1C(=O)c1cc2c(C(=O)C(=O)N(C)C)cn(C)c2cc1Cl`, for which the GI50 was 13 µM and the TGI was 35.2 µM.

Consider `O=C1c2cccnc2C(=O)c2c1c(C(=O)NCCCN1CCCCC1)c1ccccn21`, for which the GI50 was 3.15 µM and the TGI is 10.5 µM.

The molecule `COc1ccccc1-c1cc(=O)c2cc(C)cnc2[nH]1` showed a TGI above 100 µM.

The next assay has as its system SK-MEL-5 melanoma. Put plainly: NCI tumour cell line growth inhibition, 48 h.
Take `NC(=O)c1csc(C2OC(CO)C(O)C2O)n1` (stereo not drawn): the GI50 was above 31.6 µM; the TGI was > 31.6 µM and 8280 µM.

On to `CCCN(CCS(C)(=O)=O)Cc1ccc(-c2ccc3ncnc(Nc4ccc(OCc5cccc(F)c5)c(Cl)c4)c3c2)o1`, for which the GI50 is above 14.1 µM and the TGI was above 25 µM.

As to `CC(C)C[C@H](NC(=O)CNC(=O)c1cc(Cl)ccc1Cl)B1OC(=O)CC(CC(=O)O)(C(=O)O)O1` (stereo partly drawn), the GI50 was 0.0177 µM and the TGI was determined as 0.0467 µM.

Regarding `OCC12C3C4C5C3C1C5C42` (stereo not drawn), the TGI is above 100 µM.

In the case of `CCCCCCCCCCCCCCCCCC[n+]1ccc2c(C)c3c(c(C)c2c1)c1cc(O)ccc1n3CC`, the GI50 was 1.34 µM and the TGI came to 2.85 µM.

As to `CCc1ccc2c(c1)N(CCO)C1=C(C(=O)OC1)C2c1cccc(Br)c1` (stereo not drawn), the GI50 was 0.256 µM and the TGI is 8.67 µM.

In the case of `COc1ccc(-c2nc(Nc3cc(C)[nH]n3)c3ccccc3n2)cc1`, the GI50 was 4.11 µM and the TGI is 22.7 µM.

On to `CN(C)CCCn1c(=O)c2ccccc2c2ccccc21`, for which the GI50 was 12.3 µM and the TGI came to 24.9 µM.

On to `O=c1[nH]c(=O)n(C2CC(O)C(COP(=O)(OCc3ccc([N+](=O)[O-])o3)N(CCCCCl)CC(O)CO)O2)cc1F` (stereo not drawn), for which the GI50 was 0.386 µM and the TGI came out at 4.49 µM.

Turning to `O=C1OC(=O)C(=C\c2ccc3c(c2)OCO3)/C1=C/c1ccc2c(c1)OCO2`, the TGI was above 100 µM.

`CC(C)NCCCn1c(Sc2cc3c(cc2I)OCO3)nc2c(N)ncnc21`: the GI50 was 0.462 µM and the TGI was determined as 18 µM.

On to `COc1ccc(-c2[nH]c3ccccc3c2-c2ccc(OC)cc2)cc1`, for which the GI50 is 3.65 µM and the TGI is 15.2 µM.

For `CN1C(=O)N(C)C2C1NN=c1s/c(=C\c3ccc(C(F)(F)F)cc3)c(=O)n12` (stereo not drawn), the GI50 is 0.594 µM and the TGI is 13.9 µM.

In the case of `C[C@@H]1CN(Cc2ccc(F)cc2)[C@@H](C)CN1C(=O)c1cc2c(C(=O)C(=O)N(C)C)cn(C)c2cc1Cl`, the GI50 is 13.1 µM and the TGI was 26 µM.

As for `O=C1c2cccnc2C(=O)c2c1c(C(=O)NCCCN1CCCCC1)c1ccccn21`, the GI50 was 0.36 µM and the TGI is 1.35 µM.

With `COc1ccccc1-c1cc(=O)c2cc(C)cnc2[nH]1`, the GI50 was 20.4 µM and the TGI was above 100 µM.

A further assay deals with SN12C renal. Put plainly: NCI tumour cell line growth inhibition, 48 h.
The molecule `NC(=O)c1csc(C2OC(CO)C(O)C2O)n1` (stereo not drawn) showed a TGI above 8480 µM.

Turning to `CCCN(CCS(C)(=O)=O)Cc1ccc(-c2ccc3ncnc(Nc4ccc(OCc5cccc(F)c5)c(Cl)c4)c3c2)o1`, the GI50 is above 25 µM and the TGI is above 25 µM.

On to `CC(C)C[C@H](NC(=O)CNC(=O)c1cc(Cl)ccc1Cl)B1OC(=O)CC(CC(=O)O)(C(=O)O)O1` (stereo partly drawn), for which the GI50 was 0.0862 µM and the TGI is 0.982 µM.

`OCC12C3C4C5C3C1C5C42` (stereo not drawn) came in with a TGI above 100 µM.

Consider `CCCCCCCCCCCCCCCCCC[n+]1ccc2c(C)c3c(c(C)c2c1)c1cc(O)ccc1n3CC`, for which the GI50 was 1.79 µM and the TGI was found to be 6.08 µM.

On to `CCc1ccc2c(c1)N(CCO)C1=C(C(=O)OC1)C2c1cccc(Br)c1` (stereo not drawn), for which the GI50 was 1.35 µM and the TGI came to 18.9 µM.

`COc1ccc(-c2nc(Nc3cc(C)[nH]n3)c3ccccc3n2)cc1`: the GI50 was 2.01 µM and the TGI is above 100 µM.

Take `CN(C)CCCn1c(=O)c2ccccc2c2ccccc21`: the GI50 was 16.9 µM and the TGI was above 100 µM.

As to `O=c1[nH]c(=O)n(C2CC(O)C(COP(=O)(OCc3ccc([N+](=O)[O-])o3)N(CCCCCl)CC(O)CO)O2)cc1F` (stereo not drawn), the GI50 was below 0.0496 µM.

Consider `O=C1OC(=O)C(=C\c2ccc3c(c2)OCO3)/C1=C/c1ccc2c(c1)OCO2`, for which the TGI is above 100 µM.

For `CC(C)NCCCn1c(Sc2cc3c(cc2I)OCO3)nc2c(N)ncnc21`, the GI50 is 0.174 µM and the TGI was above 100 µM.

With `COc1ccc(-c2[nH]c3ccccc3c2-c2ccc(OC)cc2)cc1`, the GI50 was 6.73 µM and the TGI was 23.5 µM.

As for `CN1C(=O)N(C)C2C1NN=c1s/c(=C\c3ccc(C(F)(F)F)cc3)c(=O)n12` (stereo not drawn), the GI50 is 3.89 µM and the TGI was above 100 µM.

Take `C[C@@H]1CN(Cc2ccc(F)cc2)[C@@H](C)CN1C(=O)c1cc2c(C(=O)C(=O)N(C)C)cn(C)c2cc1Cl`: the GI50 is 15.7 µM and the TGI was 43.5 µM.

Consider `O=C1c2cccnc2C(=O)c2c1c(C(=O)NCCCN1CCCCC1)c1ccccn21`, for which the GI50 is 0.472 µM and the TGI was 1.84 µM.

Consider `COc1ccccc1-c1cc(=O)c2cc(C)cnc2[nH]1`, for which the TGI is above 100 µM.
